Reference: patent publication US7851444B2 (priority 2002, dated 2010)

Assays:
[1] = molecular target: T1, human noradrenaline transporter (hNET) (Homo sapiens, UniProt P23975); assay: biochemical; format: binding
T1 construct: expressed in transfected cells; host or cells: COS-7 cells (ATCC), transient transfection with metafectene

[2] = molecular target: T1, human noradrenaline transporter (hNET); assay: cell-based

T1 sequence (P23975 whole entry): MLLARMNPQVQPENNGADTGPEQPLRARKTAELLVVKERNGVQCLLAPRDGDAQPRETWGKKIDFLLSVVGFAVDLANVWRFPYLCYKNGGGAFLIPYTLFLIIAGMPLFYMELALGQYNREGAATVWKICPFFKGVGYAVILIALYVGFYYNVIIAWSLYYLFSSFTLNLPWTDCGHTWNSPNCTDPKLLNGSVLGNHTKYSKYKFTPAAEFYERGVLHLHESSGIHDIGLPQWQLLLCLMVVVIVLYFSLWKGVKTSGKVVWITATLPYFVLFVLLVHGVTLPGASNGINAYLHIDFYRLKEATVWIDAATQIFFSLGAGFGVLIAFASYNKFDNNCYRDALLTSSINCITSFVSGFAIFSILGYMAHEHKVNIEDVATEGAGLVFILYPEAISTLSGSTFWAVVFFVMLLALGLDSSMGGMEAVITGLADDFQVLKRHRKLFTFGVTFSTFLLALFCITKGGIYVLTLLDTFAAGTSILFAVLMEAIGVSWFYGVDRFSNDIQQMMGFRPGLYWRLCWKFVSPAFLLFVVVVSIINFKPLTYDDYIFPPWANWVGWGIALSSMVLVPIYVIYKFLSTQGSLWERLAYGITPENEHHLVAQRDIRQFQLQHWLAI

SMILES | IC50 [1] [µM] | IC50 [2] [µM]
CC(C)C[C@@H]1NC(=O)[C@H](CCCCN)NC(=O)[C@H](Cc2ccc(O)cc2)NC(=O)CNC(=O)[C@@H]2CSSC[C@H](NC1=O)C(=O)N[C@@H](Cc1c[nH]cn1)C(=O)N1C[C@H](O)C[C@H]1C(=O)N[C@H](C(=O)O)CSSC[C@H](NC(=O)[C@@H](NC(=O)CNC(=O)[C@@H]1CCC(=O)N1)C(C)C)C(=O)N2 [SEQ ID NO. 9, Xaa1 Gly Val Cys Cys Gly Tyr Lys Leu Cys His Xaa3 Cys —OH] | 8.32 | –
COc1ccc(C[C@@H]2NC(=O)CNC(=O)[C@@H]3CSSC[C@H](NC(=O)[C@H](CC(C)C)NC(=O)[C@H](CCCCN)NC2=O)C(=O)N[C@@H](Cc2c[nH]cn2)C(=O)N2C[C@H](O)C[C@H]2C(=O)N[C@H](C(N)=O)CSSC[C@H](NC(=O)[C@@H](NC(=O)CNC(=O)[C@@H]2CCC(=O)N2)C(C)C)C(=O)N3)cc1 [SEQ ID NO. 6, Xaa1 Gly Val Cys Cys Gly Xaa4 Lys Leu Cys His Xaa3 Cys] | 1.15 | 0.214
CC(C)C[C@@H]1NC(=O)[C@H](CCCCN)NC(=O)[C@H](Cc2ccc(O)cc2)NC(=O)CNC(=O)[C@@H]2CSSC[C@H](NC1=O)C(=O)N[C@@H](Cc1c[nH]cn1)C(=O)N1C[C@H](O)C[C@H]1C(=O)N[C@@H](C(N)=O)CSSC[C@H](NC(=O)[C@@H](NC(=O)CNC(=O)[C@@H]1CCC(=O)N1)C(C)C)C(=O)N2 [SEQ ID NO. 5, Xaa1 Gly Val Cys Cys Gly Tyr Lys Leu Cys His Xaa3 Xaa5] | 4.17 | 0.575
